Source: PubChem BioAssay (NCI)
Values joined by “and” are separate entries in the source; they are usually repeats but may differ in a detail not shown here. Equal values may be shown once.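 The compound was tested at five concentrations on cells cultured in 96-well plates, with a 48-hour exposure period. GI50 is the concentration that inhibits growth by half. TGI is the concentration that stops growth completely.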

The compounds below were run on NCI-H226 lung (assay: NCI tumour cell line growth inhibition, 48 h).

| SMILES | GI50 | TGI |
| --- | --- | --- |
| CN(C)c1ccc(/C=C\C2=[N+](C)c3ccccc3C2(C)C)cc1 | 2.68 µM | > 55.2 µM |
| CC(=O)OC1OC([C@@H]2c3cccc(O)c3C(=O)c3c(O)cc(C)cc32)C(O)C(O)C1O (some centres undefined) | 0.012 µM | 0.0806 µM |
| Nc1nc(-n2c(-c3ccccc3)nc3c(Br)cc(Br)cc3c2=O)nnc1-c1cccc(Cl)c1Cl | 24.1 µM | > 100 µM |
| C[N+](C)(C)CC(=O)N/N=C(/CC(=O)CC(C1=C(O)c2ccccc2OC1)c1ccccc1)C(=O)Nc1cccc(Cl)c1 (centres undefined) | – | > 100 µM |
| O=C1/C(=C/c2ccc(O)c(O)c2)CCC/C1=C\c1ccc(O)c(O)c1 | – | 9.43 µM |
| COC(=O)/C=C1\S/C(=N\NC(=O)c2cc3ccc2/C=C\c2ccc(cc2)/C=C\3)N(c2ccccc2)C1=O | 4.38 µM | 25.5 µM |
| COC([CH2][Hg][n]1cnc2c1c(=O)n(C)c(=O)n2C)CN1C(=O)c2ccccc2S1(=O)=O (centres undefined) | > 100 µM | > 100 µM |
| COc1ccc(CC2c3cc4c(cc3CCN2C)OCO4)c(C=O)c1OC (centres undefined) | – | > 100 µM |
| CN1CCCCC1CCN1c2ccccc2Sc2ccc(Cl)cc21 (centres undefined) | 12.9 µM | 32.1 µM |
| C=C(C)C(OC)C(O)CC1(C)CC(O)CC(C)(C2CCC3OC(C4(C)CCC(Br)C(C)(C)O4)CCC3(C)O2)O1 (centres undefined) | 18.8 µM | 41.2 µM |
| Cc1cc(-c2nc(C(=O)Nc3cc4oc(N5CCOCC5)nc4nc3N3CC[C@@H](O)C3)co2)ccn1 | > 100 µM | > 100 µM |
| COc1cc2c(cc1OCCCCN1CCN(CC(=O)Nc3ccc(Cl)cc3C(=O)c3ccccc3Cl)CC1)N=CC1CCCN1C2=O (centres undefined) | 0.483 µM | 1.44 µM |
| FC(F)(F)c1cccc(Nc2nc(-c3ccccc3)nc3ncccc23)c1 | 6.25 µM | 35.6 µM |
| O=C(Nc1ccccc1)c1c(O)[nH]c(=S)[nH]c1=O | – | 107 µM |
| OC1CSSC1Cn1cnc2c(Nc3ccc(OCc4cccc(F)c4)c(Cl)c3)ncnc21 (centres undefined) | 3.38 µM | 12.8 µM |
| Nc1c(C(=O)c2cccc(CCS(N)(=O)=O)c2)cnn1-c1ccc(F)cc1 | > 19.7 µM | > 25 µM |
| OCc1cc2ccccc2c2c3c(ccc12)OCO3 | 23.7 µM | 163 µM |
| COc1cnc2c(c1)C(=O)c1c-2n(CCCN2CCOCC2)c(=O)c2cc(F)ccc12 | 0.206 µM | 1.14 µM |
| C[C@@H](Oc1cc(-n2cnc3ccc(CN4CCN(C)CC4)cc32)sc1C(N)=O)c1ccccc1C(F)(F)F | – | 19 µM and > 10 µM |
| CCOC1Oc2ccccc2C(=O)/C1=C/Nc1ccc(C(C)=O)cc1 (centres undefined) | 26.7 µM | 68.1 µM |
| COc1cccc(-c2cc(-c3cccc(NS(C)(=O)=O)c3)nc(N)c2C#N)c1O | 0.372 µM | > 100 µM |
| Cc1ccsc1C(=S)Nc1ccc(Cl)c(/C=N/OC(C)(C)C)c1 | – | > 100 µM |
| NC(N)=NS(=O)(=O)c1ccc(Nc2c3ccccc3nc3c(C(=O)NCCO)cccc23)cc1 | – | 0.322 µM |
| COc1cccc(C2c3cc4c(cc3OC(C)(N3CCCC3)C2C)OCO4)c1O (centres undefined) | – | 19.9 µM |
| CCN(CC)N=Nc1c(C(N)=O)n[nH]c1C | – | > 100 µM |
| O=C1NC(=NCCc2cccc(F)c2)S/C1=C\c1ccc2ncccc2c1 | > 12.9 µM | > 25 µM |
| Cc1ccc2c(C)c3c(ccc4ccccc43)c[n+]2c1 | 21.1 µM | > 100 µM |

The compounds below were run on SK-OV-3 ovarian (assay: NCI tumour cell line growth inhibition, 48 h).

| SMILES | GI50 | TGI |
| --- | --- | --- |
| CN(C)c1ccc(/C=C\C2=[N+](C)c3ccccc3C2(C)C)cc1 | 0.696 µM | > 24.4 µM |
| CC(=O)OC1OC([C@@H]2c3cccc(O)c3C(=O)c3c(O)cc(C)cc32)C(O)C(O)C1O (some centres undefined) | 0.134 µM | 3.17 µM |
| Nc1nc(-n2c(-c3ccccc3)nc3c(Br)cc(Br)cc3c2=O)nnc1-c1cccc(Cl)c1Cl | 27.2 µM | > 100 µM |
| C[N+](C)(C)CC(=O)N/N=C(/CC(=O)CC(C1=C(O)c2ccccc2OC1)c1ccccc1)C(=O)Nc1cccc(Cl)c1 (centres undefined) | – | > 100 µM |
| O=C1/C(=C/c2ccc(O)c(O)c2)CCC/C1=C\c1ccc(O)c(O)c1 | – | 20.7 µM |
| COC(=O)/C=C1\S/C(=N\NC(=O)c2cc3ccc2/C=C\c2ccc(cc2)/C=C\3)N(c2ccccc2)C1=O | 3.55 µM | 75.3 µM |
| COC([CH2][Hg][n]1cnc2c1c(=O)n(C)c(=O)n2C)CN1C(=O)c2ccccc2S1(=O)=O (centres undefined) | > 100 µM | > 100 µM |
| COc1ccc(CC2c3cc4c(cc3CCN2C)OCO4)c(C=O)c1OC (centres undefined) | – | > 100 µM |
| CN1CCCCC1CCN1c2ccccc2Sc2ccc(Cl)cc21 (centres undefined) | 3.69 µM | 13.7 µM |
| C=C(C)C(OC)C(O)CC1(C)CC(O)CC(C)(C2CCC3OC(C4(C)CCC(Br)C(C)(C)O4)CCC3(C)O2)O1 (centres undefined) | 22.8 µM | 54.3 µM |
| Cc1cc(-c2nc(C(=O)Nc3cc4oc(N5CCOCC5)nc4nc3N3CC[C@@H](O)C3)co2)ccn1 | 16.6 µM | 66.9 µM |
| COc1cc2c(cc1OCCCCN1CCN(CC(=O)Nc3ccc(Cl)cc3C(=O)c3ccccc3Cl)CC1)N=CC1CCCN1C2=O (centres undefined) | 0.38 µM | 1.22 µM |
| FC(F)(F)c1cccc(Nc2nc(-c3ccccc3)nc3ncccc23)c1 | 11 µM | 24 µM |
| O=C(Nc1ccccc1)c1c(O)[nH]c(=S)[nH]c1=O | – | 122 µM |
| OC1CSSC1Cn1cnc2c(Nc3ccc(OCc4cccc(F)c4)c(Cl)c3)ncnc21 (centres undefined) | 0.75 µM | 1.75 µM |
| Nc1c(C(=O)c2cccc(CCS(N)(=O)=O)c2)cnn1-c1ccc(F)cc1 | > 25 µM | > 25 µM |
| OCc1cc2ccccc2c2c3c(ccc12)OCO3 | 32 µM | 96.6 µM |
| COc1cnc2c(c1)C(=O)c1c-2n(CCCN2CCOCC2)c(=O)c2cc(F)ccc12 | 0.282 µM | 1.92 µM |
| C[C@@H](Oc1cc(-n2cnc3ccc(CN4CCN(C)CC4)cc32)sc1C(N)=O)c1ccccc1C(F)(F)F | 0.025 µM and 0.0673 µM | 1.67 µM and > 10 µM |
| CCOC1Oc2ccccc2C(=O)/C1=C/Nc1ccc(C(C)=O)cc1 (centres undefined) | 44.4 µM | > 100 µM |
| COc1cccc(-c2cc(-c3cccc(NS(C)(=O)=O)c3)nc(N)c2C#N)c1O | 0.149 µM | > 100 µM |
| Cc1ccsc1C(=S)Nc1ccc(Cl)c(/C=N/OC(C)(C)C)c1 | – | > 100 µM |
| NC(N)=NS(=O)(=O)c1ccc(Nc2c3ccccc3nc3c(C(=O)NCCO)cccc23)cc1 | 51.6 µM | – |
| COc1cccc(C2c3cc4c(cc3OC(C)(N3CCCC3)C2C)OCO4)c1O (centres undefined) | – | 38.4 µM |
| CCN(CC)N=Nc1c(C(N)=O)n[nH]c1C | – | 97.9 µM |
| O=C1NC(=NCCc2cccc(F)c2)S/C1=C\c1ccc2ncccc2c1 | 4.38 µM | > 25 µM |
| Cc1ccc2c(C)c3c(ccc4ccccc43)c[n+]2c1 | 18.6 µM | 57.2 µM |

The compounds below were run on BT-549 breast (assay: NCI tumour cell line growth inhibition, 48 h).

| SMILES | GI50 | TGI |
| --- | --- | --- |
| CN(C)c1ccc(/C=C\C2=[N+](C)c3ccccc3C2(C)C)cc1 | 0.423 µM | 11.2 µM |
| CC(=O)OC1OC([C@@H]2c3cccc(O)c3C(=O)c3c(O)cc(C)cc32)C(O)C(O)C1O (some centres undefined) | 0.0181 µM | 0.778 µM |
| Nc1nc(-n2c(-c3ccccc3)nc3c(Br)cc(Br)cc3c2=O)nnc1-c1cccc(Cl)c1Cl | 19.1 µM | > 100 µM |
| C[N+](C)(C)CC(=O)N/N=C(/CC(=O)CC(C1=C(O)c2ccccc2OC1)c1ccccc1)C(=O)Nc1cccc(Cl)c1 (centres undefined) | – | > 100 µM |
| O=C1/C(=C/c2ccc(O)c(O)c2)CCC/C1=C\c1ccc(O)c(O)c1 | – | > 33.9 µM |
| COC(=O)/C=C1\S/C(=N\NC(=O)c2cc3ccc2/C=C\c2ccc(cc2)/C=C\3)N(c2ccccc2)C1=O | 2.22 µM | 5.35 µM |
| COC([CH2][Hg][n]1cnc2c1c(=O)n(C)c(=O)n2C)CN1C(=O)c2ccccc2S1(=O)=O (centres undefined) | > 100 µM | > 100 µM |
| COc1ccc(CC2c3cc4c(cc3CCN2C)OCO4)c(C=O)c1OC (centres undefined) | – | > 100 µM |
| CN1CCCCC1CCN1c2ccccc2Sc2ccc(Cl)cc21 (centres undefined) | 10.4 µM | 23.3 µM |
| C=C(C)C(OC)C(O)CC1(C)CC(O)CC(C)(C2CCC3OC(C4(C)CCC(Br)C(C)(C)O4)CCC3(C)O2)O1 (centres undefined) | 19.9 µM | 38.4 µM |
| Cc1cc(-c2nc(C(=O)Nc3cc4oc(N5CCOCC5)nc4nc3N3CC[C@@H](O)C3)co2)ccn1 | 33 µM | > 100 µM |
| COc1cc2c(cc1OCCCCN1CCN(CC(=O)Nc3ccc(Cl)cc3C(=O)c3ccccc3Cl)CC1)N=CC1CCCN1C2=O (centres undefined) | 0.292 µM | 0.799 µM |
| FC(F)(F)c1cccc(Nc2nc(-c3ccccc3)nc3ncccc23)c1 | 5.52 µM | 30.6 µM |
